# Measured values as given in patent US20240398811A1, “PRC2 INHIBITORS FOR USE IN TREATING BLOOD DISORDERS” (ORIC Pharmaceuticals, Inc., priority 2021, published 2024).
# Target: purified human, His-tagged PRC2 complex (Homo sapiens (Human), UniProt O75530)
# Test: Hot Spot HMT assay, inhibition of PRC2 enzymatic activity
# Format: biochemical
# Conditions: 10 nM PRC2 complex, 1 μM 3H-SAM, core histone H3, 10-point dose-response
# Source text: The assay uses purified human, His-tagged PRC2 complex, including N-terminal His-tagged EZH2 enzyme, N-terminal Flag-tagged embryonic ectoderm development protein (EED), N-terminal His-tagged suppressor of zeste 12 (SUZ12), N-terminal His-tagged AEBP2, and N-terminal His-tagged RbAp48. In this assay, the transfer of the tritiated methyl group from radiolabeled S-adenosyl methionine (SAM) to purified core histone protein by EZH2 is quantitated after filtration to determine the activity of the core PRC2 complex in the presence and absence of compound.
# The initial starting concentration for the serial dilutions of each compound was 1.0 μM. […] SAH (S-(5-adenosyl)-L-homocysteine) was used as a positive control for assay validation.
# An aliquot of each serial dilution of test compound was added to deep 384 well plate using Acoustic Technology instrument (Echo 550, LabCyte) containing reaction buffer (50 mM Tris-HCl (pH 8.)), 0.01% Brij35, 1 mM EDTA, 1 mM DTT, 1 mM PMSF and 1% DMSO), 10 nM purified PRC2 complex and 0.05 mg/ml core histone H3 in a 5 μl volume. The reaction was mixed gently and then pre-incubated for 20 min at 30° C. The enzymatic reaction was initiated by adding 1 μM S-Adenosyl-L-[methyl-^3H]methionine and incubated for 1 hr at 30° C. After 1 hr, the reaction product was detected using a filter binding method and the amount of tritiated H3 core histone was quantitated using a scintillation counter. […] Key: A=<100 nM; B=>100 nM-<500 nM; and C=>500 nM.
# purified human, His-tagged PRC2 complex, sequence (O75530 whole entry): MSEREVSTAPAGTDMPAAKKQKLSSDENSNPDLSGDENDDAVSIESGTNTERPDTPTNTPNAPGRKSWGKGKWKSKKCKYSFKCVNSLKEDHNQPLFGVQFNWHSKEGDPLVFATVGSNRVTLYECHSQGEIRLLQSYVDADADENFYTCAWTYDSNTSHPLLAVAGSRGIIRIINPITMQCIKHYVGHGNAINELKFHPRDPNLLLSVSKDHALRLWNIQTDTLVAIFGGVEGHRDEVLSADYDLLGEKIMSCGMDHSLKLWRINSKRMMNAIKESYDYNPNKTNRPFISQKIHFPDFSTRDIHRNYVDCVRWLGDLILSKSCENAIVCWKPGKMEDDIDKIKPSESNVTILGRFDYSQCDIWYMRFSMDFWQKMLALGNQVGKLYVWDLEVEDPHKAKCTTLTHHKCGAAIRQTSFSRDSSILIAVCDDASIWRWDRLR
# purified human, His-tagged PRC2 complex, sequence (Q15910 whole entry partner): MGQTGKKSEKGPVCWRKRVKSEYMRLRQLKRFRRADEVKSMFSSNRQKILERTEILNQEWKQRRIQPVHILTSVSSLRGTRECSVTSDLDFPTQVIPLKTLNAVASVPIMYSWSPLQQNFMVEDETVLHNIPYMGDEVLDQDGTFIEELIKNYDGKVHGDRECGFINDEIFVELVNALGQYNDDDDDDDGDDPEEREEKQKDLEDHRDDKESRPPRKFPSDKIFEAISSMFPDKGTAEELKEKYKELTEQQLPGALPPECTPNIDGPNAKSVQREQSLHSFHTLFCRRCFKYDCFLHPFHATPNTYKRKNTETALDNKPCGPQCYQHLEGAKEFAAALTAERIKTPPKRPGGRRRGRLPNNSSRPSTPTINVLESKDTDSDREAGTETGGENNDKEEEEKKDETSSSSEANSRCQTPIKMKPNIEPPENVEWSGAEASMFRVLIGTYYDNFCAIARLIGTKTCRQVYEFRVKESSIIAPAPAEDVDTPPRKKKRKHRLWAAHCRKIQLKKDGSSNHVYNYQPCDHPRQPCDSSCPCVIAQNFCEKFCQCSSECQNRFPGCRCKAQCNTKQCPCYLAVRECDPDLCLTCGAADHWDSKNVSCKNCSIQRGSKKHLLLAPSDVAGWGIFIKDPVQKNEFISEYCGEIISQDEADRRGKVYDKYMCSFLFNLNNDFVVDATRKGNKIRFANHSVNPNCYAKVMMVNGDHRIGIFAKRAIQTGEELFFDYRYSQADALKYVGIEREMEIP
# purified human, His-tagged PRC2 complex, sequence (Q15022 whole entry partner): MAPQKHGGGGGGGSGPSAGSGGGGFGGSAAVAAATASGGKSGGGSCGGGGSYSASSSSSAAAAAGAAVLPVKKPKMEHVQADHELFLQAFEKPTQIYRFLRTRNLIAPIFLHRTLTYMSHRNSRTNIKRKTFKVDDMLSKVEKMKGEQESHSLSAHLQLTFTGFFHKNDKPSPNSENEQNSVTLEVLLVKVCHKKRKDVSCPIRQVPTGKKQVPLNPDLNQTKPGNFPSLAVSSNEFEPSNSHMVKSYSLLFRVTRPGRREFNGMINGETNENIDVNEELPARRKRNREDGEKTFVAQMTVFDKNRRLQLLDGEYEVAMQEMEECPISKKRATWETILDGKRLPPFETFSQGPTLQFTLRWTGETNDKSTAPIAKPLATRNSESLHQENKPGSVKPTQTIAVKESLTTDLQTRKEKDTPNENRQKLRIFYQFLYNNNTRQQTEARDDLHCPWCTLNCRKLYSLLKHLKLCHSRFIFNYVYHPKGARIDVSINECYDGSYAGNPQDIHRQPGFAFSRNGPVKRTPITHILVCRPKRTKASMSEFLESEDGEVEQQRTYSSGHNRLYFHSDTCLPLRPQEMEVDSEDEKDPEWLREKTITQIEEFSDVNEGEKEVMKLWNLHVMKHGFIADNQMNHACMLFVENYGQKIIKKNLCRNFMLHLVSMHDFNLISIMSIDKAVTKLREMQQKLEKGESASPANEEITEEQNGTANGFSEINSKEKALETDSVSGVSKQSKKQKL
# purified human, His-tagged PRC2 complex, sequence (Q6ZN18 whole entry partner): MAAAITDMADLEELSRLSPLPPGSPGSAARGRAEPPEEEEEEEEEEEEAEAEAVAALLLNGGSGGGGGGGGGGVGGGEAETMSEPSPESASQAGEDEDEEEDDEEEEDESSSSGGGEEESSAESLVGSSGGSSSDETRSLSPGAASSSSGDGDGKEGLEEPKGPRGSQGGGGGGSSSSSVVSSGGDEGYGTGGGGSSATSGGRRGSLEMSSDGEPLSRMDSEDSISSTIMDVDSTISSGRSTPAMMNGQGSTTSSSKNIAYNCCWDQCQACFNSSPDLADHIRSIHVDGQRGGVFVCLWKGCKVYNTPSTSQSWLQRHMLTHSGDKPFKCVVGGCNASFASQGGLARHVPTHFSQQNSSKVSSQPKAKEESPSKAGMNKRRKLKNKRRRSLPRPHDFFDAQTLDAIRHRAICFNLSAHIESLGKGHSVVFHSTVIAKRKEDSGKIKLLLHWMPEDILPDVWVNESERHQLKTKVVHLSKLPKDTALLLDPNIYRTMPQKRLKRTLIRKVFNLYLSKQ
# purified human, His-tagged PRC2 complex, sequence (Q09028 whole entry partner): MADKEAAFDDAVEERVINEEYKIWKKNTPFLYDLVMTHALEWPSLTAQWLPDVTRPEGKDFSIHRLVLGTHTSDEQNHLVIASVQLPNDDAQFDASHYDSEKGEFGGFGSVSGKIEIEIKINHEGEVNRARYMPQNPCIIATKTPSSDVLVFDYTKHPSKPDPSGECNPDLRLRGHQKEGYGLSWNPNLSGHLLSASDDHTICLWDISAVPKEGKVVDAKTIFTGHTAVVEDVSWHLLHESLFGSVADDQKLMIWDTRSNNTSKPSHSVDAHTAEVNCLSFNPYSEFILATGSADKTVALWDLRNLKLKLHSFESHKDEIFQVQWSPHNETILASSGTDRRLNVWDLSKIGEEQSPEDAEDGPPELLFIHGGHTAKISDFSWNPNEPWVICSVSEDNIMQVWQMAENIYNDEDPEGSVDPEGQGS
row,IC50 [nM],SMILES
1,< 100,"Cc1cc(C2CCCN2)ccc1-c1cnc(NCc2c(F)ccc3c2CCO3)n2cc(C#N)nc12 (single isomer, unassigned) [Example 213, 5-(((5-fluoro-2,3-dihydrobenzofuran-4-yl)methyl)amino)-8-(2-methyl-4-(pyrrolidin-2-yl)phenyl)imidazo[1,2-c]pyrimidine-2-carbonitrile]"
2,< 100,"Cc1cc(C2CCCN2)ccc1-c1cnc(NCc2c(F)ccc3c2CCO3)n2cc(C#N)nc12 (single isomer, unassigned) [Example 214, 5-(((5-fluoro-2,3-dihydrobenzofuran-4-yl)methyl)amino)-8-(2-methyl-4-(pyrrolidin-2-yl)phenyl)imidazo[1,2-c]pyrimidine-2-carbonitrile]"
3,< 100,"Cc1cn(-c2cnc(NCc3c(F)ccc4c3CCO4)n3cc(C(=O)O)nc23)cn1 [Example 4, 5-(((5-fluoro-2,3-dihydrobenzofuran-4-yl)methyl)amino)-8-(4-methyl-1H-imidazol-1-yl)imidazo[1,2-c]pyrimidine-2-carboxylic Acid]"
4,< 100,"Cc1nn(C(C)C)cc1-c1cnc(NCc2c(F)ccc3c2CCO3)n2cc(C(=O)O)nc12 [Example 5, 5-(((5-fluoro-2,3-dihydrobenzofuran-4-yl)methyl)amino)-8-(1-isopropyl-3-methyl-1H-pyrazol-4-yl)imidazo[1,2-c]pyrimidine-2-carboxylic acid]"
5,100 to 500,"COc1cc(C)c(-c2cnc(NCc3c(F)ccc4c3CCO4)n3cc(C(=O)O)nc23)cn1 [Example 6, 5-(((5-fluoro-2,3-dihydrobenzofuran-4-yl)methyl)amino)-8-(6-methoxy-4-methylpyridin-3-yl)imidazo[1,2-c]pyrimidine-2-carboxylic acid]"
6,< 100,"Cc1nc(C2CC2)ncc1-c1cnc(NCc2c(F)ccc3c2CCO3)n2cc(C(=O)O)nc12 [Example 7, 8-(2-cyclopropyl-4-methylpyrimidin-5-yl)-5-(((5-fluoro-2,3-dihydrobenzofuran-4-yl)methyl)amino)imidazo[1,2-c]pyrimidine-2-carboxylic acid]"
7,< 100,"Cc1c(-c2cnc(NCc3c(F)ccc4c3CCO4)n3cc(C(=O)O)nc23)cnn1C(C)C [Example 8, 5-(((5-fluoro-2,3-dihydrobenzofuran-4-yl)methyl)amino)-8-(1-isopropyl-5-methyl-1H-pyrazol-4-yl)imidazo[1,2-c]pyrimidine-2-carboxylic acid]"
8,< 100,"Cc1cc(-c2cnc(NCc3c(F)ccc4occc34)n3cc(C(=O)O)nc23)n(C)n1 [Example 9, 8-(1,3-dimethyl-1H-pyrazol-5-yl)-5-(((5-fluorobenzofuran-4-yl)methyl)amino)imidazo[1,2-c]pyrimidine-2-carboxylic acid]"
9,< 100,"Cc1cc(-c2cnc(NCc3cccc4c3CCO4)n3cc(C(=O)O)nc23)n(C)n1 [Example 10, 5-(((2,3-dihydrobenzofuran-4-yl)methyl)amino)-8-(1,3-dimethyl-1H-pyrazol-5-yl)imidazo[1,2-c]pyrimidine-2-carboxylic acid]"
10,< 100,"Cc1cc(-c2cnc(NCc3c(F)ccc4c3CCO4)n3cc(C(N)=O)nc23)n(C)n1 [Example 11, 8-(1,3-dimethyl-1H-pyrazol-5-yl)-5-(((5-fluoro-2,3-dihydrobenzofuran-4-yl)methyl)amino)imidazo[1,2-c]pyrimidine-2-carboxamide]"
11,< 100,"Cc1ncccc1-c1cnc(NCc2c(F)ccc3occc23)n2cc(C(N)=O)nc12 [Example 12, 5-(((5-fluorobenzofuran-4-yl)methyl)amino)-8-(2-methylpyridin-3-yl)imidazo[1,2-c]pyrimidine-2-carboxamide]"
12,< 100,"Cc1nn(C(C)C)cc1-c1cnc(NCc2c(F)ccc3c2CCO3)n2cc(C(N)=O)nc12 [Example 13, 5-(((5-fluoro-2,3-dihydrobenzofuran-4-yl)methyl)amino)-8-(1-isopropyl-3-methyl-1H-pyrazol-4-yl)imidazo[1,2-c]pyrimidine-2-carboxamide]"
13,100 to 500,"COc1cc(C)c(-c2cnc(NCc3c(F)ccc4c3CCO4)n3cc(C(N)=O)nc23)cn1 [Example 14, 5-(((5-fluoro-2,3-dihydrobenzofuran-4-yl)methyl)amino)-8-(6-methoxy-4-methylpyridin-3-yl)imidazo[1,2-c]pyrimidine-2-carboxamide]"
14,100 to 500,"Cc1nc(C2CC2)ncc1-c1cnc(NCc2c(F)ccc3c2CCO3)n2cc(C(N)=O)nc12 [Example 15, 8-(2-cyclopropyl-4-methylpyrimidin-5-yl)-5-(((5-fluoro-2,3-dihydrobenzofuran-4-yl)methyl)amino)imidazo[1,2-c]pyrimidine-2-carboxamide]"
15,< 100,"Cc1c(-c2cnc(NCc3c(F)ccc4c3CCO4)n3cc(C(N)=O)nc23)cnn1C(C)C [Example 16, 5-(((5-fluoro-2,3-dihydrobenzofuran-4-yl)methyl)amino)-8-(1-isopropyl-5-methyl-1H-pyrazol-4-yl)imidazo[1,2-c]pyrimidine-2-carboxamide]"
16,100 to 500,"Cc1cn(-c2cnc(NCc3c(F)ccc4c3CCO4)n3cc(C(N)=O)nc23)cn1 [Example 17, 5-(((5-fluoro-2,3-dihydrobenzofuran-4-yl)methyl)amino)-8-(4-methyl-1H-imidazol-1-yl)imidazo[1,2-c]pyrimidine-2-carboxamide]"
17,< 100,"Cc1cc(-c2cnc(NCc3c(F)ccc4occc34)n3cc(C(N)=O)nc23)n(C)n1 [Example 18, 8-(1,3-dimethyl-1H-pyrazol-5-yl)-5-(((5-fluorobenzofuran-4-yl)methyl)amino)imidazo[1,2-c]pyrimidine-2-carboxamide]"
18,< 100,"Cc1cc(-c2cnc(NCc3cccc4c3CCO4)n3cc(C(N)=O)nc23)n(C)n1 [Example 19, 5-(((2,3-dihydrobenzofuran-4-yl)methyl)amino)-8-(1,3-dimethyl-1H-pyrazol-5-yl)imidazo[1,2-c]pyrimidine-2-carboxamide]"
19,< 100,"CNC(=O)c1cn2c(NCc3c(F)ccc4c3CCO4)ncc(-c3cc(C)nn3C)c2n1 [Example 20, 8-(1,3-dimethyl-1H-pyrazol-5-yl)-5-(((5-fluoro-2,3-dihydrobenzofuran-4-yl)methyl)amino)-N-methylimidazo[1,2-c]pyrimidine-2-carboxamide]"
20,> 500,"Cc1cc(-c2cnc(NCc3c(F)ccc4c3CCO4)n3cc(C(=O)N(C)C)nc23)n(C)n1 [Example 21, 8-(1,3-dimethyl-1H-pyrazol-5-yl)-5-(((5-fluoro-2,3-dihydrobenzofuran-4-yl)methyl)amino)-N,N-dimethylimidazo[1,2-c]pyrimidine-2-carboxamide]"
21,100 to 500,"Cc1ncccc1-c1cnc(NCc2c(F)ccc3occc23)n2cc(C#N)nc12 [Example 22, 5-(((5-fluorobenzofuran-4-yl)methyl)amino)-8-(2-methylpyridin-3-yl)imidazo[1,2-c]pyrimidine-2-carbonitrile]"
22,100 to 500,"Cc1nn(C(C)C)cc1-c1cnc(NCc2c(F)ccc3c2CCO3)n2cc(C#N)nc12 [Example 23, 5-(((5-fluoro-2,3-dihydrobenzofuran-4-yl)methyl)amino)-8-(1-isopropyl-3-methyl-1H-pyrazol-4-yl)imidazo[1,2-c]pyrimidine-2-carbonitrile]"
23,100 to 500,"COc1cc(C)c(-c2cnc(NCc3c(F)ccc4c3CCO4)n3cc(C#N)nc23)cn1 [Example 24, 5-(((5-fluoro-2,3-dihydrobenzofuran-4-yl)methyl)amino)-8-(6-methoxy-4-methylpyridin-3-yl)imidazo[1,2-c]pyrimidine-2-carbonitrile]"
24,100 to 500,"Cc1nc(C2CC2)ncc1-c1cnc(NCc2c(F)ccc3c2CCO3)n2cc(C#N)nc12 [Example 25, 8-(2-cyclopropyl-4-methylpyrimidin-5-yl)-5-(((5-fluoro-2,3-dihydrobenzofuran-4-yl)methyl)amino)imidazo[1,2-c]pyrimidine-2-carbonitrile]"
25,100 to 500,"Cc1c(-c2cnc(NCc3c(F)ccc4c3CCO4)n3cc(C#N)nc23)cnn1C(C)C [Example 26, 5-(((5-fluoro-2,3-dihydrobenzofuran-4-yl)methyl)amino)-8-(1-isopropyl-5-methyl-1H-pyrazol-4-yl)imidazo[1,2-c]pyrimidine-2-carbonitrile]"
26,> 500,"Cc1cc(-c2cnc(NCc3cccc4c3OCO4)n3cc(C#N)nc23)n(C)n1 [Example 27, 5-((benzo[d][1,3]dioxol-4-ylmethyl)amino)-8-(1,3-dimethyl-1H-pyrazol-5-yl)imidazo[1,2-c]pyrimidine-2-carbonitrile]"
27,> 500,"Cc1cc(-c2cnc(NCc3c(Cl)ccc4c3CCO4)n3cc(C#N)nc23)n(C)n1 [Example 29, 5-(((5-chloro-2,3-dihydrobenzofuran-4-yl)methyl)amino)-8-(1,3-dimethyl-1H-pyrazol-5-yl)imidazo[1,2-c]pyrimidine-2-carbonitrile]"
28,100 to 500,"Cc1cc(-c2cnc(NCc3cccc4c3CCO4)n3cc(C#N)nc23)n(C)n1 [Example 30, 5-(((2,3-dihydrobenzofuran-4-yl)methyl)amino)-8-(1,3-dimethyl-1H-pyrazol-5-yl)imidazo[1,2-c]pyrimidine-2-carbonitrile]"
